From ChEMBL document CHEMBL1201862, “PubChem BioAssay data set” (2004)
The source made the active and inactive calls.

Columns and labels:
Format in all cases: functional
[1] = biological target: Ribosomal protein S6 kinase alpha-3 (Homo sapiens, UniProt P51812);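 also: measured within a kinome-wide profiling panel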
[2] = biological target: T1, Tyrosine-protein kinase receptor TYRO3 (Homo sapiens, UniProt Q06418);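 also: TYRO3 value obtained as one member of a kinome-wide profiling panel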
T1 sequence (Q06418 whole entry): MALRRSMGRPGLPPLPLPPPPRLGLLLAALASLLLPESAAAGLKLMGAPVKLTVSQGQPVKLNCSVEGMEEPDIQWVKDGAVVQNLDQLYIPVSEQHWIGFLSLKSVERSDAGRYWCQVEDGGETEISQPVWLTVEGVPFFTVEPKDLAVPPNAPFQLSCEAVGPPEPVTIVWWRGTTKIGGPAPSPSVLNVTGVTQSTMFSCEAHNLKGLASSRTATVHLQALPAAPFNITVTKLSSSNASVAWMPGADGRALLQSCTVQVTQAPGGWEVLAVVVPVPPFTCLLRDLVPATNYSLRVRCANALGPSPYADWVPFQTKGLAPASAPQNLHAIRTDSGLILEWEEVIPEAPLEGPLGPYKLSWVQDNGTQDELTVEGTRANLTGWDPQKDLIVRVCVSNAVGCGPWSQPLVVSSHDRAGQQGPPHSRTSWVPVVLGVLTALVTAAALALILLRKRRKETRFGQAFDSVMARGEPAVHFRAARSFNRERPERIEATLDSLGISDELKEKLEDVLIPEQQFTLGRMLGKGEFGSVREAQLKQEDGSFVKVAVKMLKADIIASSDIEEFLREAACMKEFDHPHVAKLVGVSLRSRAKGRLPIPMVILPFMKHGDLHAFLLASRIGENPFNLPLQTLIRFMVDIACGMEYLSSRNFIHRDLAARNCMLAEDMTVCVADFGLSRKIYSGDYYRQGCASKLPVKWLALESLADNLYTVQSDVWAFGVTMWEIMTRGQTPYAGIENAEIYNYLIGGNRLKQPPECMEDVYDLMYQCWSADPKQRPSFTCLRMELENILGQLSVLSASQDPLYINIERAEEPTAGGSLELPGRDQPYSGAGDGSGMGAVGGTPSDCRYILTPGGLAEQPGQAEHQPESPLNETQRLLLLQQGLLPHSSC

[3] = biological target: Tyrosine-protein kinase Lck (Homo sapiens, UniProt P06239);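 also: lck was assayed as one member of a kinase panel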
[4] = biological target: Mitogen-activated protein kinase 9 (Homo sapiens, UniProt P45984);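 also: value from a kinome panel profiling assay, MAPK9 panel entry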
[5] = biological target: T2, Mitogen-activated protein kinase kinase kinase kinase 2 (Homo sapiens, UniProt Q12851);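 also: measured as one member of a kinome-wide kinase panel, with MAP4K2 as the panel entry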
T2 sequence (Q12851 whole entry): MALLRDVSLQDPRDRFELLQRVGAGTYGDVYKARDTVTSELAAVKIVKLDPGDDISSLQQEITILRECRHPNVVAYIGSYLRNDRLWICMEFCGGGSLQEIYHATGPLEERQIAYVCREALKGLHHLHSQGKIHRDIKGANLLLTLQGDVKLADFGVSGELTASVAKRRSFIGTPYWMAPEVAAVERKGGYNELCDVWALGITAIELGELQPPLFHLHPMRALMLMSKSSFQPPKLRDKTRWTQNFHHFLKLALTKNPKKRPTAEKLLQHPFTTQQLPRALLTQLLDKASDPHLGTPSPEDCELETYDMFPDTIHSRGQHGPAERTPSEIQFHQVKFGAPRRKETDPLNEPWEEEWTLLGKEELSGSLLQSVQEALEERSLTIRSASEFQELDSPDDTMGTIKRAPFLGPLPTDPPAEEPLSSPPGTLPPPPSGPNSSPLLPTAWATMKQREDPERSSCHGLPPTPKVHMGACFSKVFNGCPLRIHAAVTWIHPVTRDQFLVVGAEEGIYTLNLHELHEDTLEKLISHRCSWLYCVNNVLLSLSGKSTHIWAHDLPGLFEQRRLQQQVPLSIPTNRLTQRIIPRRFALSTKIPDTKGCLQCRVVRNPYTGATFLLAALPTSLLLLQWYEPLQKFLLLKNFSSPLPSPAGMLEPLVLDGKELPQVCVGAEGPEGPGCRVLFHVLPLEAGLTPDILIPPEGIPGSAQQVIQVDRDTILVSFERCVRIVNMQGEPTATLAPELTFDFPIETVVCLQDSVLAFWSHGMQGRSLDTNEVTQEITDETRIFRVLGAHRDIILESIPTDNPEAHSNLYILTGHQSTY

[6] = biological target: Platelet-derived growth factor receptor beta (Homo sapiens, UniProt P09619);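 also: value comes from a kinome panel, with PDGFRB tested as one panel member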
[7] = biological target: Serine/threonine-protein kinase Chk1 (Homo sapiens, UniProt O14757);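 also: measured as one member of a kinome-wide kinase profiling panel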
[8] = biological target: Insulin-like growth factor 1 receptor (Homo sapiens, UniProt P08069); assay: Navigating the Kinome. Panel member name: IGF1R
[9] = biological target: T3, cAMP-dependent protein kinase catalytic subunit PRKX (Homo sapiens, UniProt P51817)
T3 sequence (P51817 whole entry): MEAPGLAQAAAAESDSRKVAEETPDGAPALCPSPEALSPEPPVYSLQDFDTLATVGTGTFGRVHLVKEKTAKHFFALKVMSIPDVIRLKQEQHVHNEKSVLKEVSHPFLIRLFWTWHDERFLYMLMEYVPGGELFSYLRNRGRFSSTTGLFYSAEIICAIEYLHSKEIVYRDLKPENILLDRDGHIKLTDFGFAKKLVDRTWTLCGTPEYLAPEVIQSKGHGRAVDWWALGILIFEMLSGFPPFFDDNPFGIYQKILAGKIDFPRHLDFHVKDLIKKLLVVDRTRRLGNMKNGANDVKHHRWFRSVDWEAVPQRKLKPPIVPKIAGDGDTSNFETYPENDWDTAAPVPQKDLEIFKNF

[10] = biological target: Tyrosine-protein kinase Fyn (Homo sapiens, UniProt P06241)
[11] = biological target: Cyclin-dependent kinase 8 (Homo sapiens, UniProt P49336); assay: Navigating the Kinome. Panel member name: CDK8
[12] = biological target: Macrophage colony-stimulating factor 1 receptor (Homo sapiens, UniProt P07333);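 also: value comes from the Navigating the Kinome screening panel, CSF1R member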
[13] = biological target: Mitogen-activated protein kinase 14 (Homo sapiens, UniProt Q16539);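 also: part of a kinome-wide panel, MAPK14 entry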
[14] = biological target: Casein kinase I isoform alpha (Homo sapiens, UniProt P48729)
[15] = biological target: Maternal embryonic leucine zipper kinase (Homo sapiens, UniProt Q14680)
[16] = biological target: Serine/threonine-protein kinase 3 (Homo sapiens, UniProt Q13188);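 also: measured as one member of a kinome-wide kinase panel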

Sequence of Tyrosine-protein kinase Fyn (P06241 whole entry): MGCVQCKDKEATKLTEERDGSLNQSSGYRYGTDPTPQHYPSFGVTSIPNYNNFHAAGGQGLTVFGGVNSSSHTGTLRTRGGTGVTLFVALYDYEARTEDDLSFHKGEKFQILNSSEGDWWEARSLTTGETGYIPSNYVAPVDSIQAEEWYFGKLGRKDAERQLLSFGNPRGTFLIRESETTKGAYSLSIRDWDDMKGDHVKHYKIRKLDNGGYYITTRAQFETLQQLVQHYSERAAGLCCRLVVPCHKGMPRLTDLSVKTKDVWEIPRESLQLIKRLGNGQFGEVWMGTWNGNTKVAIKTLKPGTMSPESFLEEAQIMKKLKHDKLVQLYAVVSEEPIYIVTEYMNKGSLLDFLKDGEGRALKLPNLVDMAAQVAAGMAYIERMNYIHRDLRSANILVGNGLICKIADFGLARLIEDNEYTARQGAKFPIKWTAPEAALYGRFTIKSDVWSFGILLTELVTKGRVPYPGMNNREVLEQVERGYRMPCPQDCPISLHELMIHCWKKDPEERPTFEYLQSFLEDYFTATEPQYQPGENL
Sequence of Ribosomal protein S6 kinase alpha-3 (P51812 whole entry): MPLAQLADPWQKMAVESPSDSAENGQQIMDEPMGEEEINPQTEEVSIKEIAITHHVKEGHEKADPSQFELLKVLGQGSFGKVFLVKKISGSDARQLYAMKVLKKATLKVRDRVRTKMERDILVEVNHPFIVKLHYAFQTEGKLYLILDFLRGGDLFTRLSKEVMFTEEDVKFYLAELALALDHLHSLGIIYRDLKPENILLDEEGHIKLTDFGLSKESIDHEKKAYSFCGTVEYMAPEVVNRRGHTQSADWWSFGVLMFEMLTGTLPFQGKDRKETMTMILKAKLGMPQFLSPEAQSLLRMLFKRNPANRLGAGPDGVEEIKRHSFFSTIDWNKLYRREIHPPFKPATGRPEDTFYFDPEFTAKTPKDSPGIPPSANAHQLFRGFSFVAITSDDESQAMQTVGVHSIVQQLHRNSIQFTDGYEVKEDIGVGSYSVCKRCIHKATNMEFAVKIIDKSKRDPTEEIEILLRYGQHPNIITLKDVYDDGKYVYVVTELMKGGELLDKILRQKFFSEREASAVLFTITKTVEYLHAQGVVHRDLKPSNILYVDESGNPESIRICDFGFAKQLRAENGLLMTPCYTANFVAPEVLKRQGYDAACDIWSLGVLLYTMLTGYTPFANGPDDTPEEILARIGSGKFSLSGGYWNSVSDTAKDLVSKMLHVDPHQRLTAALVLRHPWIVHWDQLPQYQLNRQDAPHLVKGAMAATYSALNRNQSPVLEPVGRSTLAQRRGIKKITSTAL
Sequence of Cyclin-dependent kinase 8 (P49336 whole entry): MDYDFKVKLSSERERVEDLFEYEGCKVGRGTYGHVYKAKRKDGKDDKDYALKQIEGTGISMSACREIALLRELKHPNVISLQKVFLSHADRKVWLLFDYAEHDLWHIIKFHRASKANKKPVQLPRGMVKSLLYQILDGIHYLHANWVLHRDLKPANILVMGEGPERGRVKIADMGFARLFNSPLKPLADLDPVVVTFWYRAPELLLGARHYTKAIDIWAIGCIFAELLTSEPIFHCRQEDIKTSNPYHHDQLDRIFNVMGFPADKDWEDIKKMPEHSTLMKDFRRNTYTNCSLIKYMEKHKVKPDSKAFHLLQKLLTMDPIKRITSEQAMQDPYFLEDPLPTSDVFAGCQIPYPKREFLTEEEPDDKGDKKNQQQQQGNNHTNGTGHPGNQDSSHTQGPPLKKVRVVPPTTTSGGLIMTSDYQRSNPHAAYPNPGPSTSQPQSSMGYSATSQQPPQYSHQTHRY
Sequence of Macrophage colony-stimulating factor 1 receptor (P07333 whole entry): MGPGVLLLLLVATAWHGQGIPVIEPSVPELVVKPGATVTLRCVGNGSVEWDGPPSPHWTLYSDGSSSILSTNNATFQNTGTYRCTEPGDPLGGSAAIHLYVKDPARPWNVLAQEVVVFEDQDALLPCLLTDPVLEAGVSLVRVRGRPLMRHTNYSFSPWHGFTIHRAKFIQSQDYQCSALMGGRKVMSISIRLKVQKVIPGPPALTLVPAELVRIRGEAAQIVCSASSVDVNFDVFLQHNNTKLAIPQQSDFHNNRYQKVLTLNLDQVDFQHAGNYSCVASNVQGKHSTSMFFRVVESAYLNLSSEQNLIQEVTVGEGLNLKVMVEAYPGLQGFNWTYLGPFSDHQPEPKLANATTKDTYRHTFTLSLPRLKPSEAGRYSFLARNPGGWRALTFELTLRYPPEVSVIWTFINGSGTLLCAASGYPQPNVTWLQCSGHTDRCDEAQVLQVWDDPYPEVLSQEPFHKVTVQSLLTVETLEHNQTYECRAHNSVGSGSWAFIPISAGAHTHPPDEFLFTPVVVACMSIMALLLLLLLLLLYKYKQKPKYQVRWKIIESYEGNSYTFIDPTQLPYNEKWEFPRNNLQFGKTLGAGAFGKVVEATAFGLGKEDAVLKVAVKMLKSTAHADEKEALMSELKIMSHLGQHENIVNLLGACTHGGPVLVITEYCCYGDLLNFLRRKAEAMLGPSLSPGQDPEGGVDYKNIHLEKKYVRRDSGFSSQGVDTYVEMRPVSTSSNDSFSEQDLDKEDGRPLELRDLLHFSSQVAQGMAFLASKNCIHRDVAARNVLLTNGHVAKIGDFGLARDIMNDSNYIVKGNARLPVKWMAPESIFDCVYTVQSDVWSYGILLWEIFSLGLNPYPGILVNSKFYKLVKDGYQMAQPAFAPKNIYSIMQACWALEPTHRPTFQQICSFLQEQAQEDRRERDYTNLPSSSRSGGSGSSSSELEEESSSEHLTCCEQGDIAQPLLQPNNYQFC
Sequence of Insulin-like growth factor 1 receptor (P08069 31-736 limits assumed): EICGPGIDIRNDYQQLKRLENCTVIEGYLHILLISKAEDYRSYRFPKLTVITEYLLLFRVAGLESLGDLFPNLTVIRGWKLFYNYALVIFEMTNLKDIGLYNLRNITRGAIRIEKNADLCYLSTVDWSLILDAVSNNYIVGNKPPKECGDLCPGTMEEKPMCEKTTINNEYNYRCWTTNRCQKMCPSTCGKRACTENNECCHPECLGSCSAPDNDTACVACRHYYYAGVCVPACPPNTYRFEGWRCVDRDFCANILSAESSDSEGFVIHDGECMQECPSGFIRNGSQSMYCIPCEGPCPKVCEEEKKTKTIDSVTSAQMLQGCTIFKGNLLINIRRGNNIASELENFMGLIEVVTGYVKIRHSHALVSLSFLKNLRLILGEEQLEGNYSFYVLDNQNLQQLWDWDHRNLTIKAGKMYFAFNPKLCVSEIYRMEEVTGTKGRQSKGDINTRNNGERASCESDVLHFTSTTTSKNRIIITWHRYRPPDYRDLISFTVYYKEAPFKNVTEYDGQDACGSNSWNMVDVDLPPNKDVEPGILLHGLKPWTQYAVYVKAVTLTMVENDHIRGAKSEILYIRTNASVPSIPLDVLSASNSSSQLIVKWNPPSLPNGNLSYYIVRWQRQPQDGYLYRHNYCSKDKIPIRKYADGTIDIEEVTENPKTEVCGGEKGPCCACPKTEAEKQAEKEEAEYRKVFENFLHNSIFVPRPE
Sequence of Insulin-like growth factor 1 receptor (P08069 741-1367 limits assumed): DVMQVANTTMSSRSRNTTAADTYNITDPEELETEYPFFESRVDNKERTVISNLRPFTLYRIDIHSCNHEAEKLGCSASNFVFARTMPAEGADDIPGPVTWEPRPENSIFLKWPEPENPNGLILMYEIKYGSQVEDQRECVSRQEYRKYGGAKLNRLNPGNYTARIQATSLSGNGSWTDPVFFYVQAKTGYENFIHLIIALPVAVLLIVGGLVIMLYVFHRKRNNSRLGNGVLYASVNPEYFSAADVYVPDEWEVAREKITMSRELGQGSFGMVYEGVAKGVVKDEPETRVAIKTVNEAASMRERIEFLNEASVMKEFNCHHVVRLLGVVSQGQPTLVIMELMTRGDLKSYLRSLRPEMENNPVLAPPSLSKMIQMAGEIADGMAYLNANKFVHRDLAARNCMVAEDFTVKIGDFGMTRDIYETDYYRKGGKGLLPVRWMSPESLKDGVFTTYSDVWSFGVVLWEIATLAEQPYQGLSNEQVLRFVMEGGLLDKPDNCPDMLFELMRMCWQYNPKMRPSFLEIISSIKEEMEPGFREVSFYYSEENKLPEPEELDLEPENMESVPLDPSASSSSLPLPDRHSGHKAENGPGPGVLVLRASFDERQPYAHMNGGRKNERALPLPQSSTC
Sequence of Casein kinase I isoform alpha (P48729 whole entry, canonical isoform): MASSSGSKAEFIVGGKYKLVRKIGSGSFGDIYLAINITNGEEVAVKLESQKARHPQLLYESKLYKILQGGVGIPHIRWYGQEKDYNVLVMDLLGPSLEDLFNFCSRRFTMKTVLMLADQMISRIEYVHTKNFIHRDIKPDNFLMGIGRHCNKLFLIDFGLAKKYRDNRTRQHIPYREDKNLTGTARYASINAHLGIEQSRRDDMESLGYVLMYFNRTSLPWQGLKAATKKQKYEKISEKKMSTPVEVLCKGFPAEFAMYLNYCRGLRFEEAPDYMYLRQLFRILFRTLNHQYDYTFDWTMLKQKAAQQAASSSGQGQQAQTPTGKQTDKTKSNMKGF
Sequence of Serine/threonine-protein kinase Chk1 (O14757 whole entry): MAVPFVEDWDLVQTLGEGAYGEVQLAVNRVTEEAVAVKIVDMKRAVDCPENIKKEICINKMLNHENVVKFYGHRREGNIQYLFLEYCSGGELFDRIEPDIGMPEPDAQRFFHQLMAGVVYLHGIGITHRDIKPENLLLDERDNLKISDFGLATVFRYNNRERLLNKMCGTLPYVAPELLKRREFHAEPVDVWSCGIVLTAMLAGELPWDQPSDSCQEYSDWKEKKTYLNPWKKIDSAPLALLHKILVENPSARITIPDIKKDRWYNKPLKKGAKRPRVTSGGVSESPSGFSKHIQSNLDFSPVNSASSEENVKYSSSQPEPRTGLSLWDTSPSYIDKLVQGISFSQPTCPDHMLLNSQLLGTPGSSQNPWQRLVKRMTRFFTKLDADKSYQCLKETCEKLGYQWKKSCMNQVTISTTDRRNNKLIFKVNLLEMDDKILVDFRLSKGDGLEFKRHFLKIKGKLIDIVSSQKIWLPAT

Row | Ki [1] | Ki [2] | Ki [3] | Ki [4] | Ki [5] | Ki [6] | Ki [7] | Ki [8] | Ki [9] | Ki [10] | Ki [11] | Ki [12] | Ki [13] | Ki [14] | Ki [15] | Ki [16] | Structure (SMILES)
1 | > 3.98 µM (inactive) | > 3.16 µM (inactive) | > 6.31 µM (inactive) | > 3.98 µM (inactive) | > 2.51 µM (inactive) | > 2 µM (inactive) | > 3.16 µM (inactive) | > 2.51 µM (inactive) | > 3.16 µM (inactive) | > 6.31 µM (inactive) | > 3.98 µM (inactive) | > 2.51 µM (inactive) | > 3.98 µM (inactive) | – | – | – | COc1cccc(C(C)NC(=O)c2sc(-c3ccncc3)nc2C)c1 (stereo not given)
2 | > 3.98 µM (inactive) | > 3.16 µM (inactive) | – | > 3.98 µM (inactive) | > 2.51 µM (inactive) | – | – | > 2.51 µM (inactive) | > 3.16 µM (inactive) | > 6.31 µM (inactive) | 0.0158 µM (active) | > 2.51 µM (inactive) | > 3.98 µM (inactive) | 0.794 µM (active) | > 2 µM (inactive) | > 3.16 µM (inactive) | CCCCC(=O)Nc1cc(-c2c[nH]c3ncccc23)cc(Cl)n1
3 | > 3.98 µM (inactive) | > 3.16 µM (inactive) | > 5.01 µM (inactive) | – | > 2.51 µM (inactive) | > 2 µM (inactive) | > 3.16 µM (inactive) | 1.26 µM (active) | > 3.16 µM (inactive) | > 6.31 µM (inactive) | > 3.98 µM (inactive) | > 2 µM (inactive) | – | 1 µM (active) | > 2 µM (inactive) | > 2.51 µM (inactive) | Oc1ccc(-c2nc(-c3ccncc3)c(-c3ccc(F)cc3)[nH]2)cc1 [SB-202190]
